# According to patent US11471462B2, “Compositions and methods for detecting and treating diabetes” (THE BROAD INSTITUTE, INC., priority 2016, dated 2022):
# Legend:
# Assay type in all cases: cell-based, human
# [1] = system: SLC16-dependent pyruvate transport; assay: Pyronic FRET pyruvate transport assay in 293T cells; conditions: 293T cells pre-incubated with inhibitor; 0.4 mM pyruvate, pH 7.4
# Description: To obtain “proof of concept” for monocarboxylate transport by SLC16A11, pyruvate was focused on as the metabolite transported by all four SLC16 category I proteins, whose real-time transport in mammalian cells can be readily studied by the pyruvate FRET sensor, pyronic. 293T cells were co-transfected with pyronic and either empty vector control or SLC16A11-V5, which increases SLC16A11 levels without affecting other category I family members (FIG. 3M). Cells were perfused in physiological pH 7.4 Ringer's solution and 0.4 mM pyruvate was added at the indicated time point (FIG. 3D), resulting in an increase of the fluorescence signal, indicative of pyruvate uptake. […] Thus, this is consistent with the increase in fluorescence resulting from SLC16-dependent pyruvate transport.
# Cells were transferred onto glass cover slips in 60 mm tissue culture dishes 72 hr prior to the experiment. […] Cytoplasmic pH changes, indicative of H^+ transport, were determined in cells loaded with 1 μM BCECF-AM (Rink, T. J. et al., 1982, J Cell Biol, 95:189-196), a pH sensitive dye. […] Rates of proton influx and efflux were calculated as the slopes immediately following addition and withdrawal of pyruvate, after correcting for baseline drift. Baseline drift due to fluorescence bleaching is calculated during the initial 50 seconds of each trace prior to addition of pyruvate. […]
# [2] = system: SLC16A11; assay: Metabolic effectors on SLC16A11 transcript levels in SNU761 cells; conditions: 24 hours, low and high concentrations
# Procedure: (§1) FIG. 22 provides bar graphs showing the effects of low and high concentrations of metabolic effectors (oleic acid (OA), insulin and glucagon) on expression levels of SLC16A11 and SLC16A13 transcripts in SNU761 cells cultured for 24 hours in the presence of low/high concentrations of OA (0.3 mM/1.5 mM); insulin (100 nM/500 nM); or glucagon (100 nM/500 nM). Relative transcipt levels of SLC16A11 and SLC16A13 are shown, with 2-FBS (2% Fetal Bovine Serum) used as control.
# (§2) FIG. 23 provides bar graphs showing the effects of low and high concentrations of pyruvate or lactate on expression levels of SLC16A11 and SLC16A13 transcripts in SNU761 cells cultured for 24 hours in the presence of 2 mM pyruvate (low), 10 mM pyruvate (high), 20 mM lactate (low), or 100 mM lactate (high). Relative transcipt levels of SLC16A11 and SLC16A13 are shown, compared with transcript levels in cell cultured in increasing concentrations of glucose.
# (§3) To assess whether metabolic effectors regulated SLC16A11 and SLC16A13 transcript levels, endogenous transcripts in SNU761 cells (derived from a human hepatocellular carcinoma) were examined following exposure of the cells to different metabolic perturbations. SNU761 cells were cultured in the presence of various metabolic effectors for 24 hours after which time cell lysates were collected and the relative endogenous expression levels of SLC16A11 and SLC16A13 transcripts were assessed. The metabolic effectors included in the cell cultures included oleic acid (OA) at a low concentration (0.3 mM) or a high concentration (1.5 mM); insulin at a low concentration (100 nM) or a high concentration (500 nM) and glucagon at a low concentration (100 nM) and a high concentration (500 nM). Cells cultured in 2-FBS were used as a control. […] (FIG. 22). Similarly, SNU761 cells were cultured in the presence or absence of low or high concentrations of pyruvate or lactate in the culture medium for 24 hours after which time cell lysates were analyzed. In the cultures, low (L) pyruvate concentration was 2 mM; high (H) pyruvate concentration was 10 mM, and low lactate concentration was 20 mM, while high lactate concentration was 100 mM. […] (FIG. 23).
# [3] = system: SLC16A11 protein; assay: SLC16A11 protein levels in HuH7 cells cultured with metabolites (Western blot); conditions: HuH7 cells stably expressing SLC16A11, cultured with metabolite 24 hr
# Description: FIG. 19 provides Western blots and experimental protocol steps involved in the analysis of SLC16A11 protein levels after culture of HuH7 cells stably expressing SLC16A11 in the presence or absence of various metabolites, namely, pyruvate, lactate and glucose. Cell lysates were used in the analysis. […] Tubulin is shown as a reference. As shown, glucose, pyruvate and […] are metabolites that affect SLC16A11 protein levels.
# FIG. 20 provides Western blots of V5-tagged SLC16A11 (WT) and the V5-tagged SLC16A11 variant, T2D risk, stably expressed in HuH7 cells that had been glucose-starved for the times indicated. Cell lysates were used in the analysis. […] A similar finding is observed in the left blot of FIG. 19, above, in which no SLC16A11 protein was detected in cell lysates cultured for 24 hrs without glucose compared with detectable levels of SLC16A11 protein found in lysates from cultures containing 1-5 g/L of glucose.
# FIG. 21 provides Western blots of V5-tagged SLC16A11 (WT) and the V5-tagged SLC16A11 variant, T2D risk, stably expressed in HuH7 cells that been cultured for 24 hours with or without glucose and with either low (L) or high (H) concentrations of pyruvate and lactate as indicated. Cell lysates were used in the analysis. […]
# [4] = system: SLC16A13; assay: Metabolic effectors on SLC16A13 transcript levels in SNU761 cells; conditions: 24 hours, high concentration (10 mM pyruvate, 100 mM lactate)
# Procedure: as §1, §2, §3
# [5] = system: SLC16A11; assay: Compound treatment, SLC16A11 expression by ddPCR in NCIH716 cells; conditions: same concentrations and treatment times as LINCS
# Procedure: A small number of the compounds that made the strongest positive connections to the SLC16A11 gene expression signature were selected and tested. […] Methotrexate was also included, which had been annotated as a dihydrofolate reductase inhibitor. SNU761 cells (derived from a human hepatocellular carcinoma) and NCIH716 cells (derived from a human cecum adenocarcinoma), which both express SLC16A11, were treated with the compounds. The same compound concentrations and treatment times were used as in the LINCS dataset experiments. […] For normalization, a different housekeeper gene, HPRT1, was used and obtained similar results with the mTOR inhibitors (FIGS. 14A and 14B).
# SNU761 (human hepatocellular carcinoma) and NCIH716 (human cecum adenocarcinoma) were cultured in RPMI Medium 1640 supplemented with 10% Fetal Bovine Serum (FBS), 100 μg/ml Streptomycin and 100 U/ml Penicillin. Cells were grown in a humidified CO2 incubator, at 37° C.
# For the unbiased approach taken to investigate the compounds that connected to the SLC16A11 gene expression signature, compounds were obtained from compound management at the Broad Institute.
# SNU761 and NCIH716 cells were plated into 96 well plates at a density of 20,000 cells per well. Hepatocytes were plated into collagen coated 96 well plates (Corning, 354408) at a density of 50,000 cells per well. After 24 hours, cells were treated with compounds at a final concentration of 10 μM or vehicle control for the appropriate amount of time.
# At the time of collection, cells in 96 well plates were lysed by directly adding 50 μL of RLT buffer (Qiagen). […]
# (§4) RNA was DNase treated and converted into cDNA using the High-Capacity RNA-to-cDNA kit (Thermo Fisher Scientific). The following FAM-labeled TaqMan Real-Time PCR assays (Thermo Fisher Scientific) were used to quantify gene expression: SLC16A11 (Hs00601062_g1), SLC16A13 (Hs00416832_m1), SLC16A1 (Hs01560299_m1). […] Droplets were generated and analyzed using a QX200 Droplet Generator and Reader system (BioRad). Data was extracted using QuantaSoft (BioRad) and analyzed using Microsoft Excel.
# [6] = system: SLC16A1; assay: Compound treatment, SLC16A1 expression by ddPCR in SNU761 cells; conditions: 10 μM for 24 hours
# Procedure: (§5) FIGS. 14A-14D provide graphs showing that mTOR inhibitors increase SLC16A11, but not SLC16A1 transcript levels. […] SLC16A11 (FIGS. 14A and 14B) and SLC16A1 (FIGS. 14C and 14D) expression was then assessed using droplet digital PCR (ddPCR). Bar plots depict relative fold-changes with respect to DMSO and error bars and standard deviations. Expression is normalized to housekeeping genes TBP or HPRT1.
# (§6) A small number of the compounds that made the strongest positive connections to the SLC16A11 gene expression signature were selected and tested. […] Methotrexate was also included, which had been annotated as a dihydrofolate reductase inhibitor. SNU761 cells (derived from a human hepatocellular carcinoma) and NCIH716 cells (derived from a human cecum adenocarcinoma), which both express SLC16A11, were treated with the compounds. […]
# as §4
# [7] = system: SLC16A1; assay: Compound treatment, SLC16A1 expression by ddPCR in NCIH716 cells; conditions: 10 μM for 24 hours
# Procedure: as §5, §6, §4
# [8] = system: SLC16A11; assay: Compound treatment, SLC16A11 expression by ddPCR in SNU761 cells; conditions: SNU761 cells
# Procedure, shortened: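 SNU761 hepatocellular carcinoma cells, plated 24 h, treated with compounds at 10 μM final or vehicle, with treatment times matching the LINCS dataset. SLC16A11 mRNA quantified by TaqMan droplet digital PCR, normalized to TBP or HPRT1.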
# [9] = system: SLC16A11 (A11); assay: ddPCR based screening assay for modulators of SLC16A11 expression (Z′); conditions: SNU 761 cells; compound as positive control
# Description: As detailed herein above, SLC16A11 (A11) belongs to a family of monocarboxylate transporters. Expression of A11 was studied in SNU 761 cell lines. These liver cancer cells are ideal for studying SLC16A11 expression because A11 is expressed in higher quantity in liver cells, although expression of the gene in all tissues is extremely low. The 5 SNP risk haplotype causes lowered expression and interferes with protein-protein interactions between A11 and a cofactor protein, indicating loss of function. Therefore, increasing A11 expression in individuals with the risk haplotype is likely beneficial.
# The quality of an assay can be quantified by Z′, a measure of how well the assay can differentiate between the positive and negative controls. Using the formula: […]
# First the cells were treated with inhibitor compounds, their RNA was extracted, and that RNA was used as a template to create DNA. Then, the DNA was quantified using droplet digital PCR (ddPCR), analyzed and quantified using QuantaSoft™ (BioRad). […]
# From the QuantaSoft scoring of each droplet, the means and standard deviations of SLC16A11 expression levels was determined in response to compound treatment. […] Points in light gray had the gene of interest and were scored as positive (FIG. 17C). SLC16A11 was scored in the graph. […]
smiles,measurement,setting,value
Cc1n[nH]c(C)c1Cc1sc2c(c1C(=O)N1C[C@H](O)CO1)c(=O)n(C)c(=O)n2CC(C)C [AR-C155858],pyronic fluorescence signal (pyruvate uptake),[1],completely diminished
CC(O)C(=O)O (centres unmarked) [lactate],SLC16A11 transcript levels,[2],alter transcripts at 17p13
same,SLC16A11 protein levels,[3],alter SLC16A11 protein levels
same,relative transcript levels of SLC16A13,[4],increased
"COc1ccc(-c2ccc3c(N4CCOCC4)nc(N4C[C@@H](C)O[C@@H](C)C4)nc3n2)cc1CO [KU-0063794, [5-[2-(2,6-dimethylmorpholin-4-yl)-4-morpholin-4-ylpyrido[2,3-d]pyrimidin-7-yl]-2-methoxyphenyl]methanol]","SLC16A11 transcript levels, compound treated compared to DMSO treated cells",[5],about 3 fold
same,SLC16A1 expression with respect to DMSO,[6],slight decrease
same,SLC16A1 expression with respect to DMSO,[7],slight decrease
same,"SLC16A11 transcript levels, compound treated compared to DMSO treated cells","[8]; same concentrations and treatment times as LINCS, ddPCR",about 3 fold
same,"avg_fc (SLC16A11 expression, compound treated vs DMSO treated cells)",[8]; same doses and treatment times as in the LINCS dataset,4.009
same,"increase in SLC16A11 expression, compound treated compared to DMSO treated cells","[8]; unbiased test of 59 top and 20 middle LINCS compounds, LINCS doses and times",~4 fold
same,A11 expression in manual ddPCR assay,[9],increased
